Measurements reported in patent publication US20240251792A1, “WEED CONTROL METHOD” (SYNGENTA CROP PROTECTION AG, priority 2021, published 2024).
Where two headings read alike, the source gives them in different places.

Columns and labels:
Type in all cases: in vivo
[1] = system: weeds and/or crops; experiment: Post-emergence biological efficacy (Table 4); conditions: 1000 g/ha, evaluated after 13 days; for pest or weed control at 1000 g/ha: 312 h
Method: (§1) Seeds of weeds and/or crops were sown in standard soil in pots. After cultivation for 14 days under controlled conditions in a glasshouse (at 24/19° C., day/night; 16 hours light), the plants were sprayed with an aqueous spray solution derived from the formulation of the technical active ingredient in a small amount of acetone and a special solvent and emulsifier mixture referred to as F50 (11.12% Emulsogen EL360 TM+44.44% N-methylpyrrolidone+44.44% Dowanol DPM glycol ether), to create a 50 g/l solution which was then diluted using 0.2% Genapol X080 as diluent to give the desired final dose of test compound.
(§2) The test plants were then grown under controlled conditions in the glasshouse (at 24/18° C., day/night; 15 hours light; 50% humidity) and watered twice daily. After 13 days the test was evaluated (100=total damage to plant; 0=no damage to plant).

[2] = system: ECHCG; experiment: Pre-emergence biological efficacy (Table 3); conditions: Echinochloa crus-galli, 312 h, 1000 g/ha, after 13 days, read-out: evaluation (100=total damage to plant; 0=no damage to plant)
Method: as §1, with “one day” for “14 days”, “AMA” for “F50”
as §2

[3] = system: STEME; experiment: Pre-emergence biological efficacy (Table 3); conditions: after 13 days; for pest or weed control at 1000 g/ha: 312 h, read-out: evaluation (100=total damage to plant; 0=no damage to plant)
Method: as §1, with “one day” for “14 days”, “AMA” for “F50”
as §2

[4] = system: IPOHE; experiment: Pre-emergence biological efficacy (Table 3); conditions: 1000 g/ha, after 13 days; for pest or weed control at 1000 g/ha: Ipomoea hederacea, 312 h, read-out: evaluation (100=total damage to plant; 0=no damage to plant)
Method: as §1, with “one day” for “14 days”, “AMA” for “F50”
as §2

[5] = system: AMARE; experiment: Pre-emergence biological efficacy (Table 3); conditions: 1000 g/ha, after 13 days; for pest or weed control at 1000 g/ha: Amaranthus retroflexus, 312 h, read-out: evaluation (100=total damage to plant; 0=no damage to plant)
Method: as §1, with “one day” for “14 days”, “AMA” for “F50”
as §2

[6] = system: ABUTH; experiment: Pre-emergence biological efficacy (Table 3); conditions: after 13 days; for pest or weed control at 1000 g/ha: Abutilon theophrasti, 312 h, read-out: evaluation (100=total damage to plant; 0=no damage to plant)
Method: as §1, with “one day” for “14 days”, “AMA” for “F50”
as §2

[7] = system: ZEAMX; experiment: Pre-emergence biological efficacy (Table 3); conditions: 1000 g/ha, after 13 days; for plant injury at 1000 g/ha: 312 h, read-out: evaluation (100=total damage to plant; 0=no damage to plant)
Method: as §1, with “one day” for “14 days”, “AMA” for “F50”
as §2

[8] = STEME, read-out: damage to plant STEME (100=total damage; 0=no damage)
[9] = ZEAMX, read-out: damage to plant ZEAMX (100=total damage; 0=no damage)
[10] = Abutilon theophrasti, ABUTH, read-out: damage to plant ABUTH (100=total damage; 0=no damage)
[11] = Amaranthus retroflexus, AMARE, read-out: damage to plant AMARE (100=total damage; 0=no damage)
[12] = Ipomoea hederacea, IPOHE, read-out: damage to plant IPOHE (100=total damage; 0=no damage)
[13] = Echinochloa crus-galli, ECHCG, read-out: damage to plant ECHCG (100=total damage; 0=no damage)

Structure (SMILES) | pest or weed control at 1000 g/ha [1, 8] [%] | pest or weed control at 1000 g/ha [1, 9] [%] | pest or weed control at 1000 g/ha [1, 10] [%] | pest or weed control at 1000 g/ha [1, 11] [%] | pest or weed control at 1000 g/ha [1, 12] [%] | pest or weed control at 1000 g/ha [2] [%] | pest or weed control at 1000 g/ha [3] [%] | pest or weed control at 1000 g/ha [4] [%] | pest or weed control at 1000 g/ha [5] [%] | pest or weed control at 1000 g/ha [6] [%] | plant injury at 1000 g/ha [7] [%] | pest or weed control at 1000 g/ha [1, 13] [%] | other results
COc1ccc(Cl)c(C(F)(F)C(=O)O)c1 [Compound 1-62, 2-(2-Chloro-5-methoxyphenyl)-2,2-difluoroacetic acid] | 60 | 20 | 20 | 60 | 70 | 30 | 80 | 20 | 80 | 50 | 20 |  | 
Nc1ccc(Cl)c(C(F)(F)C(=O)O)c1 [Compound 1-63, 2-(5-Amino-2-chloro-phenyl)-2,2-difluoro-acetic acid] | 0 | 0 | 10 | 20 | 20 | 0 | 0 | 0 | 0 | 0 | 0 | 10 | 
Nc1c(Cl)cc(Cl)c(Cl)c1C(F)(F)C(=O)O [Compound 1-81, 2-(2-Amino-3,5,6-trichloro-phenyl)-2,2-difluoro-acetic acid] | 50 | 0 | 20 | 50 | 50 | 0 | 20 | 10 | 30 | 20 | 0 | 10 | 
COc1cccc(C(F)(F)C(=O)O)c1Cl [Compound 1-209, 2-(2-Chloro-3-methoxyphenyl)-2,2-difluoroacetic acid] | 90 | 10 |  | 80 | 80 | 0 | 60 | 80 | 70 | 60 | 0 | 10 | 
CSc1cccc(C(F)(F)C(=O)O)c1Cl [Compound 1-220, 2-(2-Chloro-3-methylsulfanyl-phenyl)-2,2-difluoro-acetic acid] | 70 | 10 |  | 70 | 70 | 0 | 50 | 70 | 50 | 80 | 10 | 0 | 
Nc1cc(Cl)cc(C(F)(F)C(=O)O)c1Cl [Compound 1-235, 2-(3-Amino-2,5-dichlorophenyl)-2,2-difluoroacetic acid] | 50 | 20 |  | 70 | 30 | 10 | 30 | 20 | 40 | 30 | 0 | 20 | 
Nc1ccc(Cl)c(C(F)(F)C(=O)O)c1Cl [Compound 1-236, 2-(3-Amino-2,6-dichloro-phenyl)-2,2-difluoro-acetic acid] | 10 | 10 | 0 | 30 | 30 | 0 | 0 | 0 | 20 | 0 |  | 0 | 
O=C(O)C(F)(F)c1cc(Cl)cc([N+](=O)[O-])c1Cl [Compound 1-238, 2-(2,5-Dichloro-3-nitrophenyl)-2,2-difluoroaceticacid] | 40 | 0 | 0 | 30 | 0 | 0 | 0 | 0 | 0 | 0 | 0 | 0 | 
Nc1c(Cl)cccc1C(F)(F)C(=O)O [Compound 1-252, 2-(2-Amino-3-chloro-phenyl)-2,2-difluoro-acetic acid] | 90 | 10 | 80 | 20 | 70 | 0 | 10 | 50 | 40 | 90 | 0 | 0 | 
CCOC(=O)C(F)(F)c1c(Cl)cccc1[N+](=O)[O-] [Compound 3-67, Ethyl 2-(2-chloro-6-nitrophenyl)-2,2-difluoroacetate] | 0 | 20 | 10 | 50 | 50 |  | 10 | 20 | 10 | 0 | 0 |  | 
CCOC(=O)C(F)(F)c1c(F)ccc(F)c1O [Compound 3-297, Ethyl 2-(3,6-difluoro-2-hydroxyphenyl)-2,2-difluoroacetate] | 0 | 20 | 10 | 10 | 10 |  | 0 | 0 | 0 | 0 | 0 |  | 
Nc1ccc(Cl)cc1C(F)(F)C(=O)[O-].[Li+] [Compound 5-251, Lithium;2-(2-amino-5-chloro-phenyl)-2,2-difluoro-acetate] |  |  |  |  |  |  |  |  |  |  |  |  | damage to plant ABUTH (100=total damage; 0=no damage) ([1]; ABUTH): 20; damage to plant AMARE (100=total damage; 0=no damage) ([1]; AMARE): 40; damage to plant ECHCG (100=total damage; 0=no damage) ([1]; ECHCG): 0; damage to plant IPOHE (100=total damage; 0=no damage) ([1]; IPOHE): 20; damage to plant STEME (100=total damage; 0=no damage) ([1]; STEME): 20; damage to plant ZEAMX (100=total damage; 0=no damage) ([1]; ZEAMX): 0; evaluation (100=total damage to plant; 0=no damage to plant) ([3]; 1000 g/ha): 10; evaluation (100=total damage to plant; 0=no damage to plant) [4]: 0; evaluation (100=total damage to plant; 0=no damage to plant) [5]: 20; evaluation (100=total damage to plant; 0=no damage to plant) ([6]; 1000 g/ha): 10; evaluation (100=total damage to plant; 0=no damage to plant) [7]: 0
COc1c(Cl)ccc(F)c1C(F)(F)C(=O)O [Compound 7-325, 2-(3-Chloro-6-fluoro-2-methoxyphenyl)-2,2-difluoroacetic acid] | 60 | 20 | 50 | 60 | 50 |  | 30 | 50 | 50 | 20 | 10 |  | 
